Key:
[1] = system: A2780 ovarian cancer xenografts; test: A2780 ovarian cancer xenograft tumor growth; format: in vivo, human tumor in female athymic nude mice; details: for Tumor progression, Size Increase (x-Fold Day-0): vehicle group endpoint, n = 5 mice/group
Text: (§1) Animals were obtained from Charles River Laboratories, Inc. and allowed to acclimate for 5 days before experiments. Female CD-1 nude mice (Crl:CD1-Foxn1^nu, 4–6 weeks old; ES-2) or athymic nude mice (Crl:NU(NCr)-Foxn1^nu, 4–6 weeks old; SKOV3, A2780, AN3-CA) were used for the xenograft tumor models. Mice were maintained in a pathogen-free environment and handled in accordance with the Guidelines of the Canadian Council on Animal Care. Animal protocols were approved by the Institutional Animal Care and Use Committee of Université du Québec à Montréal (0620-C1R1-897-0621).
(§2) Tumor xenografts were established by subcutaneous inoculation of 5 × 10^6 cells (ES-2) or 7 × 10^6 cells (SKOV3) in 150 µL of HBSS; other xenografts were established by subcutaneous inoculation of 5 × 10^6 cells (A2780) or 2 × 10^6 cells (AN3-CA) in 150 µL of HBSS/Matrigel (50:50). All cells were injected into the right flanks of immunodeficient mice under light isoflurane anesthesia. The injection schedules and doses of injected substances are detailed in the figures. Briefly, when palpable ES-2, SKOV3 or AN3-CA tumors reached a volume of ~100 mm^3, mice were treated weekly with either vehicle, docetaxel (3.75 or 15 mg/kg) or TH1902 (8.75 or 35 mg/kg) at equivalent docetaxel amounts via intravenous (IV) tail vein injection. Note that three cycles of 15 mg/kg docetaxel is the maximum tolerated dose in mice and that 35 mg/kg TH1902 contains the same quantity of docetaxel (bis-linked to the peptide). In A2780 xenografts, when palpable tumors reached a volume of ~250 mm^3, mice were treated with either vehicle, paclitaxel (10 mg/kg, IV), carboplatin (40 mg/kg, intraperitoneal (IP)), docetaxel (10 mg/kg, IV) or TH1902 (23 mg/kg, IV) bi-weekly as single agents or once on Day-0 as combinations with carboplatin. For combination treatments, both taxanes and TH1902 were injected 1 h following carboplatin administrations at the doses previously described. Injectable solutions were prepared as follows: TH1902 was solubilized at 10 mg/mL in 10% Tween-80 in D5W (pH 4.3, w/v) then further diluted with D5W; docetaxel was solubilized at 25 mg/mL in ethanol and Tween-80 (50/50, v/v) then further diluted with D5W; paclitaxel was solubilized at 25 mg/mL in ethanol and Cremophor EL (50/50, v/v) then further diluted in saline; carboplatin was solubilized at 50 mg/mL in water then further diluted in a solution of 30% PEG400 and 5% Tween-80 in D5W (w/v); vehicle composition and preparation mimicked highest dose of TH1902 preparation. Tumor growth was monitored by two-dimensional measurements taken with an electronic caliper and tumor volume was calculated according to the following formula: tumor volume (mm^3) = π/6 × length × width^2. Data are expressed as mean ± SEM and were analyzed using GraphPad Prism software.
Figure 8 Effects of TH1902 and carboplatin combinations on A2780 ovarian cancer xenografts. A2780 cells were subcutaneously implanted in the flanks of athymic nude mice. Tumor volume measurements following bi-weekly administrations of (A) vehicle, docetaxel, TH1902, paclitaxel or carboplatin as single agents, or (B) administered once in combination using the same dosage as described in the methods section. Colored dots below indicate drug treatments for all groups. Data are represented as mean ± SEM (n = 5 mice/group).

ES-2 cells = test: Cell proliferation, MTT assay, ES-2; format: cell-based; details: Homo sapiens, 72 h, mean ± SD, n = 3 to 5, read-out: IC50, anti-proliferative activity
Protocol: (§3) To assess the effects of docetaxel and TH1902 on ovarian and endometrial cancer cell proliferation, cells (ES-2: 3000 cells/well, SKOV3: 1000 cells/well, A2780: 7000 cells/well, AN3-CA: 7000 cells/well) were first seeded in 96-well plates (Perkin Elmer, Guelph, ON, Canada), then treated with various concentrations of drugs in complete cell culture medium. After 72 h of incubation for ES-2, A2780 and AN3-CA cells, or 96 h for SKOV3 cells, cell proliferation was measured using the 3-(4,5-dimethylthiazol-2-yl)-2,5-diphenyltetrazolium bromide (MTT) as described previously. Analyses were made in quadruplicate for each condition.

SKOV3 cells = test: Cell proliferation, MTT assay, SKOV3; format: cell-based; details: Homo sapiens, SK-OV-3, 96 h, mean ± SD, n = 3 to 5, read-out: IC50, anti-proliferative activity
Protocol: as §3

A2780 cells = test: Cell proliferation, MTT assay, A2780; format: cell-based; details: Homo sapiens, 72 h, mean ± SD, n = 3 to 5, read-out: IC50, anti-proliferative activity
Protocol: as §3

[2] = system: ES-2 ovarian cancer xenografts; test: ES-2 ovarian cancer xenograft tumor growth; format: in vivo, human tumor in female CD-1 nude mice; details: for Tumor progression, Size Increase (x-Fold Day-0): vehicle group endpoint Day 18, n = 6 mice/group
Text: as §1
Tumor xenografts were established by subcutaneous inoculation of 5 × 10^6 cells (ES-2) or 7 × 10^6 cells (SKOV3) in 150 µL of HBSS; other xenografts were established by subcutaneous inoculation of 5 × 10^6 cells (A2780) or 2 × 10^6 cells (AN3-CA) in 150 µL of HBSS/Matrigel (50:50). All cells were injected into the right flanks of immunodeficient mice under light isoflurane anesthesia. The injection schedules and doses of injected substances are detailed in the figures. […] Note that three cycles of 15 mg/kg docetaxel is the maximum tolerated dose in mice and that 35 mg/kg TH1902 contains the same quantity of docetaxel (bis-linked to the peptide). […] Tumor growth was monitored by two-dimensional measurements taken with an electronic caliper and tumor volume was calculated according to the following formula: tumor volume (mm^3) = π/6 × length × width^2. Data are expressed as mean ± SEM and were analyzed using GraphPad Prism software.
Figure 6 Effects of docetaxel and TH1902 on ES-2 and SKOV3 ovarian cancer xenografts. […] Immunodeficient mice bearing subcutaneous ES-2 (A) or SKOV3 (B) tumors were intravenously injected weekly with either vehicle, docetaxel (at its MTD and quarter MTD doses; 15 and 3.75 mg/kg, respectively), or TH1902 (at a dosage which contains a quantity of bound docetaxel equal to the docetaxel doses; 35 and 8.75 mg/kg, respectively), as described in the methods section. […]

[3] = system: SKOV3 ovarian cancer xenografts; test: SKOV3 ovarian cancer xenograft tumor growth; format: in vivo, human tumor in female athymic nude mice; details: for Tumor progression, Size Increase (x-Fold Day-0): vehicle endpoint Day 28, n = 6 mice/group
Text: as §1
as §2, with “For combination treatments, both taxanes and TH1902 were injected 1 h following carboplatin administrations at the doses previously described. Injectable solutions were prepared as follows: TH1902 was solubilized at 10 mg/mL in 10% Tween-80 in D5W (pH 4.3, w/v) then further diluted with D5W; docetaxel was solubilized at 25 mg/mL in ethanol and Tween-80 (50/50, v/v) then further diluted with D5W; paclitaxel was solubilized at 25 mg/mL in ethanol and Cremophor EL (50/50, v/v) then further diluted in saline; carboplatin was solubilized at 50 mg/mL in water then further diluted in a solution of 30% PEG400 and 5% Tween-80 in D5W (w/v); vehicle composition and preparation mimicked highest dose of TH1902 preparation.” left out
Figure 6 Effects of docetaxel and TH1902 on ES-2 and SKOV3 ovarian cancer xenografts. […] Immunodeficient mice bearing subcutaneous ES-2 (A) or SKOV3 (B) tumors were intravenously injected weekly with either vehicle, docetaxel (at its MTD and quarter MTD doses; 15 and 3.75 mg/kg, respectively), or TH1902 (at a dosage which contains a quantity of bound docetaxel equal to the docetaxel doses; 35 and 8.75 mg/kg, respectively), as described in the methods section. Mice in the ES-2 study were euthanized at vehicle group endpoint (Day 18), whereas indicated groups in SKOV3 study were monitored for a prolonged period up to Day 46 post start of treatments.

[4] = system: AN3-CA endometrial cancer xenografts; test: AN3-CA endometrial cancer xenograft tumor growth; format: in vivo, human tumor in female athymic nude mice; details: for Tumor progression, Size Increase (x-Fold Day-0): vehicle group endpoint Day 14, n = 6 mice/group
Text: as §1, §2

[5] = Mice weights, ES-2 xenograft study; format: in vivo; details: ES-2 study
[6] = Mice weights, SKOV3 xenograft study; format: in vivo; details: docetaxel 15 mg/kg, three weekly cycles
Protocol: (§4) Tumor xenografts were established by subcutaneous inoculation of 5 × 10^6 cells (ES-2) or 7 × 10^6 cells (SKOV3) in 150 µL of HBSS; other xenografts were established by subcutaneous inoculation of 5 × 10^6 cells (A2780) or 2 × 10^6 cells (AN3-CA) in 150 µL of HBSS/Matrigel (50:50). All cells were injected into the right flanks of immunodeficient mice under light isoflurane anesthesia. The injection schedules and doses of injected substances are detailed in the figures. Briefly, when palpable ES-2, SKOV3 or AN3-CA tumors reached a volume of ~100 mm^3, mice were treated weekly with either vehicle, docetaxel (3.75 or 15 mg/kg) or TH1902 (8.75 or 35 mg/kg) at equivalent docetaxel amounts via intravenous (IV) tail vein injection. Note that three cycles of 15 mg/kg docetaxel is the maximum tolerated dose in mice and that 35 mg/kg TH1902 contains the same quantity of docetaxel (bis-linked to the peptide). […] Tumor growth was monitored by two-dimensional measurements taken with an electronic caliper and tumor volume was calculated according to the following formula: tumor volume (mm^3) = π/6 × length × width^2. Data are expressed as mean ± SEM and were analyzed using GraphPad Prism software. […]

[7] = Mice weights, AN3-CA xenograft study; format: in vivo; details: docetaxel high dose 15 mg/kg, reversed when dosage was halved
Protocol: as §4

[8] = Mice weights, A2780 xenograft study; format: in vivo; details: docetaxel 10 mg/kg IV, three cycles
Protocol: as §4

[9] = ref [38]; cited from earlier work
Text: Taxanes, mainly paclitaxel and docetaxel, are well-known microtubule stabilizers used in various cancer including ovarian and endometrial cancer first-line therapies in the last thirty years. […] Here, the new chemical entity TH1902 is distinct from the docetaxel molecule as it selectively exploits SORT1’s internalization properties to trigger cell apoptosis in ES-2 and ...

[10] = mice; three (weekly) cycles; ref [31]; cited from earlier work
[11] = single agent 40 mg/kg IP bi-weekly
[12] = single agent 10 mg/kg IV bi-weekly

## N.N.O=C([O-])C1(C(=O)[O-])CCC1.[Pt+2] [Carboplatin, carboplatin]
[1]; [11]
  Tumor growth inhibition: 38%
  Tumor progression, Size Increase (x-Fold Day-0): 4.21 x-Fold Day-0

## CC(=O)O[C@@]12CO[C@@H]1C[C@H](O)[C@@]1(C)C(=O)[C@H](O)C3=C(C)[C@@H](OC(=O)[C@H](O)[C@@H](NC(=O)OC(C)(C)C)c4ccccc4)C[C@@](O)([C@@H](OC(=O)c4ccccc4)[C@H]21)C3(C)C [Docetaxel, docetaxel]
ES-2 cells
  IC50: 2.24 ± 0.99 nM
SKOV3 cells
  IC50: 0.61 ± 0.1 nM
A2780 cells
  IC50: 1.76 ± 0.38 nM
[2]; docetaxel 3.75 mg/kg IV weekly
  Tumor progression, Size Increase (x-Fold Day-0): 10.08 x-Fold Day-0
[2]; docetaxel 15 mg/kg IV weekly
  Tumor progression, Size Increase (x-Fold Day-0): 8.31 x-Fold Day-0
[2]; docetaxel, both 3.75 and 15 mg/kg IV weekly
  Effect on tumor growth: produced little effect
[3]; docetaxel 3.75 mg/kg IV weekly
  Tumor progression, Size Increase (x-Fold Day-0): 9.70 x-Fold Day-0
[3]; docetaxel 15 mg/kg IV weekly
  Tumor progression, Size Increase (x-Fold Day-0): 2.25 x-Fold Day-0
[3]; docetaxel high dose 15 mg/kg, prolonged monitoring
  Tumor regrowth on prolonged monitoring: could not sustain this effect, which is marked by tumor regrowth
[3]; docetaxel high dose 15 mg/kg, vs vehicle endpoint Day 28
  Tumor growth inhibition: 84%
[4]; docetaxel 3.75 mg/kg IV weekly
  Tumor progression, Size Increase (x-Fold Day-0): 12.07 x-Fold Day-0
[4]; docetaxel 15 mg/kg IV weekly
  Tumor progression, Size Increase (x-Fold Day-0): 0.79 x-Fold Day-0
[4]; docetaxel high dose 15 mg/kg (halved for final two treatments), before end of treatments
  Tumor response on prolonged monitoring: unresponsive and regrew before the end of treatments
[4]; docetaxel high dose 15 mg/kg, vs vehicle endpoint
  Tumor regression: induced tumor regressions
[1]; [12]
  Tumor growth inhibition: 43%
  Tumor progression, Size Increase (x-Fold Day-0): 4.13 x-Fold Day-0
[5]; docetaxel high dose 15 mg/kg, three weekly cycles, vs initial weight
  Tolerability / body weight: small weight loss
[5]; docetaxel low dose 3.75 mg/kg weekly
  Tolerability / body weight: well-tolerated with slight weight gain
[6]
  Body weight loss: > 10%
  Body weight loss, in words: severe weight loss
[7]
  Body weight loss, in words: Rapid weight loss
[8]
  Body weight loss, in words: significant body weight loss
[9]
  Water solubility: very poor water solubility
[10]
  Maximum tolerated dose: 15 mg/kg

— publication PMC9031804, “The Peptide-Drug Conjugate TH1902: A New Sortilin Receptor-Mediated Cancer Therapeutic against Ovarian and Endometrial Cancers” (Cancers, 2022)
